This note sets out measurements from patent US6670364B2, “Antagonists of MCP-1 function and methods of use thereof” (Telik, Inc., priority 2001, dated 2003).

Data set [1] concerns ICR male mice. Briefly: Thioglycollate-induced inflammation model (Example 17). Format: in vivo, mouse. Particulars: peritoneal cavity 72 h after thioglycollate; 5 mg/kg, subcutaneous. As to the method: (§1) 3% Brewer's thioglycollate broth (Difco, Detroit, Mich.) was injected into the peritoneal cavity of ICR male mice, followed by subcutaneous administration of the test compound. The same dose of test compound was again administered immediately after the broth injection and 3 h later. After 72 h, the number of total elicited cells and MOMA2-positive cells in the peritoneal cavity was analyzed using an EPICS XL Beckman Coulter.

The test system of data set [2] is male Wistar rats. Briefly: Anti-Thy-1 antibody-induced nephritis model, s.c. (Example 19). Format: in vivo. Particulars: rat; for ED-1 positive cells/glomeruli (mean ± SE): day 7. The protocol: The efficacy of the compounds of the present invention was also evaluated in an animal model of nephritis. This model very closely simulates the conditions found in human mesangial proliferative glomerulonephritis.
Anti-Thy-1 nephritis was induced by intravenous injection of anti-Thy-1-antibody to male Wistar rats. The test compound was subcutaneously administered 2 h before, immediately after, and 5 h after the anti-Thy-1 antibody treatment, and then twice a day for the following 2 days. Anti-MCP-1 antibody was intraperitoneally injected once a day for 3 days. Seven days after the anti-Thy-1 antibody treatment, the rats were sacrificed. The kidneys were perfused with 10% formaldehyde in PBS, surgically removed, and immersed in 10% formaldehyde. The kidneys were then embedded in paraffin for glomerular histopathology or in OCT compound (Miles Inc., Elkhart, Ind.) in liquid nitrogen after immersion in 30% sucrose overnight. Immunohistochemical staining was performed with a mouse anti-rat ED-1 monoclonal antibody. Briefly, 5 μm renal sections were prepared and endogenous peroxidase blocked with 0.3% hydrogen peroxide. The sections were then blocked with Protein Block (DAKO, Japan) and stained with anti-ED-1 antibody for 45 min. The ED-1 antigen was visualized by peroxidase-labeled anti-mouse IgG and diaminobenzidine. The amount of urinary protein was determined with the DC protein assay kit (Bio-Rad, Hercules, Calif.). The effect of a representative test compound on the level of urinary protein excretion and the infiltration of ED-1 positive cells into the glomeruli is shown in Table 10.

Another data set deals with apoE-deficient mice. As to the kind of experiment: Apolipoprotein E-deficient mouse model of atherosclerosis (Example 20). Format: in vivo. The protocol: Apolipoprotein E (apoE) is a component of several plasma lipoproteins, including chylomicrons, VLDL, and HDL. Receptor-mediated catabolism of these lipoprotein particles is mediated through the interaction of apoE with the LDL receptor (LDLR) or with LDLR-related protein (LRP). […] The efficacy of the compounds of the present invention was also evaluated using this animal model.
Male, 4 week-old apoE-deficient mice were fed on high-fat diet (15% fat, 1.25% cholesterol). The test compound was administered as food admixture for 8 weeks. At 12 week-old, the mice were fasted for 4 hours and then sacrificed under ether anesthesia. Blood was collected in the presence of heparin, and the hearts were perfused in situ with PBS (pH 7.4), followed by 4% paraformaldehyde for 5 min.
To determine cross-sectional lesion areas, the hearts were embedded in OCT compound and sectioned at 10 μm using cryostat. The sections were stained with oil red O. Each section of the aortic valve was evaluated for oil red O staining by capturing images directly from a RGB camera attached to a light microscope; image analysis was performed with the IPAP-WIN software (Sumika Tekuno, Japan). Five sections were examined for each animal, and the sum of the lesion areas was calculated and expressed as the percent of the total cross-sectional wall area. Total cholesterol was determined with a Determiner assay kit (Kyowa medex, Japan).

Data set [3] has as its target T1, hMCP-1 (Homo sapiens, UniProt P13500). Briefly: Inhibition of MCP-1-induced chemotaxis (96-well chamber, Example 16). It counts as cell-based. The settings on record: THP-1 cells, 12.5 nM hMCP-1, 2 h, 96-well microchemotaxis chamber. As to the method:
A 96-well microchemotaxis chamber with a 5 μm-pore size, PVP-coated polycarbonate filter membrane (Neuro Probe Inc., Cabin John, Md.) was used for testing. Compounds were prepared as 10 mM stock solution in DMSO. THP-1 cells (2×10^6 cells/mL) were labeled with 5 μM Calcein AM containing 0.1% F127 (Molecular Probe, Eugene, Oreg.) at 37° C. for 30 min, and then pretreated with compound at room temperature for an additional 30 min. […] The filter membrane was placed over the lower chamber, followed by a silicon gasket and the upper chamber. The pretreated THP-1 cells (4×10^5 cells/50 μL of RPMI1640 medium per well) were added to the upper chamber and incubated in 5% CO2 at 37° C. for 2 h. The migrated cells were determined with a fluorescent plate reader (LJL BioSystems, Sunnyvale, Calif.).
Target sequence in this assay (P13500 24-99): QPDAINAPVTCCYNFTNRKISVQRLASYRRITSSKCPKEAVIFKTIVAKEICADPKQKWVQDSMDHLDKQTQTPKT
Target sequence in this assay (P41597 whole entry partner): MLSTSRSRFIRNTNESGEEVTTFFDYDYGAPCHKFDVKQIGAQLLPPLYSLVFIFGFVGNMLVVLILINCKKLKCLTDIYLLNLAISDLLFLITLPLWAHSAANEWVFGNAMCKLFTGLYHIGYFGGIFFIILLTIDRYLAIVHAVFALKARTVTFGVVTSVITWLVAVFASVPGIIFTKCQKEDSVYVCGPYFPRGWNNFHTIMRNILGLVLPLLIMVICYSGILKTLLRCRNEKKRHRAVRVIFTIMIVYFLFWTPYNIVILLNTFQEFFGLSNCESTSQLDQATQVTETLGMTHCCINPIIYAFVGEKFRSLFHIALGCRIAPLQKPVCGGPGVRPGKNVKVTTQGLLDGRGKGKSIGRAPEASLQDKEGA

Another data set deals with male Lewis rats. As to the kind of experiment: Adjuvant arthritis model in rat (Example 22). Particulars: 10 mg/kg p.o. once a day. It counts as in vivo. The protocol: Adjuvant arthritis was induced in male Lewis rats as follows. Complete Freund's adjuvant (CFA) was mixed with PBS and 0.1 ml of the resulting emulsion was injected subcutaneously into the foot pad of the right hind paw (day=0). The test compound was administered p.o. at day 0 and then once a day for 26 days. Paw swelling was measured by the increased thickness of the foot pad.

The test system of data set [4] is male Wistar rats. Briefly: Anti-Thy-1 antibody induced nephritis model, per os (Example 26). It counts as in vivo, rat. As to the method:
Anti-Thy-1 nephritis was induced by intravenous injection of anti-Thy-1-antibody to male Wistar rats. The test compound was per os administered 2 h before, immediately after, and 5 h after the anti-Thy-1 antibody treatment, and then twice a day for the following 2 days. Seven days after the anti-Thy-1 antibody treatment, the rats were sacrificed. The amount of urinary protein was determined with the DC protein assay kit (Bio-Rad, Hercules, Calif.).

The target of data set [5] is T1, hMCP-1. As to the kind of experiment: Inhibition of MCP-1-induced chemotaxis (48-well chamber, Example 21). Particulars: THP-1 cells, 2.5 nM hMCP-1, 48-well chamber, 2 hr. Further details: purchased PeproTech. Format: cell-based. The protocol: A 48-well microchemotaxis chamber with a 5 μm-pore size, PVP-coated polycarbonate filter membrane (Neuro Probe Inc., Cabin John, Md.) was used for testing. Compounds were prepared as 10 mM stock solution in DMSO. THP-1 cells were washed with RPMI 1640 medium supplemented with 0.5% BSA and 25 mM HEPES, pH 7.4, and suspended at a density of 4×10^6 cells/mL in the same medium. A 150 μL aliquot of this suspension was treated with an equal volume of test compound solution and the mixture incubated at 37° C. for 15 min. The lower chamber was loaded with 26 μL of a 2.5 nM solution of hMCP-1 (PeproTech) in medium. The filter membrane was placed over the lower chamber, followed by a silicon rubber gasket and the upper chamber. A 50 μL aliquot of the THP-1 cell suspension containing the test compound was added to the upper chamber and the assembly incubated in a 5% CO2 atmosphere at 37+ C. for 2 hr. The chamber was then disassembled and the cells remaining on the upper surface of the filter were scrapped off with a rubber scrapper. The filter was fixed with methanol, stained with Diff-Quik solution, and mounted on a slide glass. The cells that had migrated across the filter onto the lower surface were then counted by microscopic observation.
Target sequence in this assay (P13500 24-99): as the sequence (P13500 24-99) above

Data set [6] deals with ICR male mice. Briefly: Thioglycollate-induced inflammation model (Example 18). It counts as in vivo. The settings on record: 10 mg/kg s.c., repeated immediately after broth injection and 3 h later; peritoneal cavity at 72 h; mouse. As to the method:
as §1

Data set [7] relates to female Lewis rats. As to the kind of experiment: Collagen-induced arthritis model in rat, p.o. (Example 24). Format: in vivo. As to the method:
Collagen-induced arthritis was induced in female Lewis rats as follows. Rats were injected subcutaneously with the emulsion of bovine collagen type 11 (3.3 mg/kg at day 0 and 1.67 mg/kg at day 7) and complete Freund's adjuvant (CFA) at the base of the tail at day 0 and immunized additionally at day 7. The test compounds were administered p.o. at day 0 and then twice a day for 21 days or 3 times a week until day 21 was also administered p.o. from day 13 to day 21 in another group. Paw swelling was measured by the increased volume of the legs using a plethysmometer.

Data set [8] relates to female Lewis rats. Briefly: Collagen-induced arthritis model in rat, i.p. (Example 23). Format: in vivo. As to the method:
Collagen-induced arthritis was induced in female Lewis rats as follows. Rats were injected subcutaneously with the emulsion of bovine collagen type 11 (3.3 mg/kg at day 0 and 1.67 mg/kg at day 7) and complete Freund's adjuvant (CFA) at the base of the tail at day 0 and immunized additionally at day 7. The test compounds were administered i.p. at day 0 and then once a day for 18 days or p.o. (methotrexate) at day 0 and then 3 times a week until day 18. Paw swelling was measured by the increased volume of the legs using a plethysmometer.

[9] abbreviates: 2 mg/kg p.o. twice a day from day 0.
[10] abbreviates: 10 mg/kg p.o. from day 13 to day 21.
[11] abbreviates: 10 mg/kg p.o. twice a day from day 0.
[12] abbreviates: 1 mg/kg p.o. 3 times a week until day 21 (positive control).

As to `Cc1nn(C)c2ncc(C(=O)NC(=O)Nc3ccc(F)c(C(F)(F)F)c3)cc12` [Compound 11, (1,3-Dimethylpyrazolo[5,4-b]pyridin-5-yl)-N-({[4-fluoro-3-(trifluoromethyl)phenyl]amino}carbonyl)carboxamide], in the data set with ICR male mice [1], the “MOMA2-positive Cells (× 10^6)” value was 14.3 ± 1.2 × 10^6 and the “Total Cells (× 10^6)” value was 19.7 ± 1.6 × 10^6. Besides, in the data set with male Wistar rats [2] (0.1 mg/kg s.c.), the “Urinary Protein” value is recorded as 182.2 ± 28.0 mg/day and the “ED-1 positive cells/glomeruli (mean ± SE)” value is recorded as 5.3 ± 0.7 cells/glomeruli. In the data set on male Wistar rats [2] (2 mg/kg s.c.), the “Urinary Protein” value came out at 117.4 ± 26.3 mg/day and the “ED-1 positive cells/glomeruli (mean ± SE)” value worked out at 2.3 ± 0.6 cells/glomeruli. In addition, the “% Atherosclerotic Lesion (mean ± SD)” value in the data set with apoE-deficient mice (10 mg/kg as food admixture for 8 weeks, high-fat diet, aortic valve sections, oil red O) came out at 18.72 ± 5.27 %. Further, the “body weight vs control” value in the data set on apoE-deficient mice (apoE-deficient mice, 8 weeks treatment, data not shown) is reported as “no significant differences”. Besides, the “percent of atherosclerotic lesion area (in words)” value in the data set on apoE-deficient mice (vs control group, statistically significant) was “reduced”.

Broadly, the IC50 is the concentration needed to halve the response being measured. Higher therefore signals weaker potency in that assay. In turn, `Cc1nn(C)c2ncc(C(=O)NC(=O)Nc3ccc(Cl)c(Cl)c3)c(Cl)c12` [Compound 37, N-{[(3,4-dichlorophenyl)amino]carbonyl}(4-chloro-1,3-Dimethylpyrazolo[5,4-b]pyridin-5-yl)carboxamide] had an IC50 at hMCP-1 [3] of 12.7 µM. This lies in the double-digit micromolar range.

As for `Cc1nn(C)c2ncc(C(=O)NC(=O)Nc3ccc(F)c(C(F)(F)F)c3)c(N3CCN(C)CC3)c12.Cl` [Compound 85, [1,3-Dimethyl-4-(4-methylpiperazinyl)pyrazolo[5,4-b]pyridin-5-yl]-N-({[4-fluoro-3-(trifluoromethyl)phenyl]amino}carbonyl)carboxamide hydrochloride], the “Percent Swelling (foot pad)” value in the data set on male Lewis rats (day 11 after immunization) was found to be 39%; with male Lewis rats (day 14 after immunization), 40%; in the data set on male Lewis rats (day 17 after immunization), 34%; in the data set on male Lewis rats (day 21 after immunization), 30%; in the data set on male Lewis rats (day 22 after immunization) it was 26%; in the data set on male Lewis rats (day 26 after immunization), 27%. Also, the “Urinary Protein (mg/mg creatinine)” value with male Wistar rats [4] (0.1 mg/kg per os) is listed as 33.4 ± 5.1 mg/mg creatinine; in the data set with male Wistar rats [4] (1 mg/kg per os) it was 32.4 ± 5.9 mg/mg creatinine; in the data set with male Wistar rats [4] (10 mg/kg per os), 23.5 ± 7.2 mg/mg creatinine. Besides, on hMCP-1 [5], the IC50 was 0.09 µM.

`Cc1nn(C)c2nc(N(C)CCN(C)C)c(C(=O)NC(=O)Nc3cccc(OC(C)C)c3)cc12` [Compound 140]: the “MOMA2-positive Cells (× 10^6)” value in the data set with ICR male mice [6] is on record as 5.2 ± 0.6 × 10^6. Moreover, the “Total Cells (× 10^6)” value with ICR male mice [6] is listed as 7.3 ± 1.1 × 10^6. Besides, the “Percent Swelling day 14” value turned out to be 14.2 ± 3.3 % in the data set on female Lewis rats [7] (setting [9]), 10.1 ± 1.6 % in the data set on female Lewis rats [7] (setting [10]) and 7.5 ± 1.0 % in the data set with female Lewis rats [7] (setting [11]). Besides, the “Percent Swelling day 21” value in the data set on female Lewis rats [7] (setting [9]) is listed as 49.2 ± 14.1 %; with female Lewis rats [7] (setting [10]), 73.5 ± 6.3%; with female Lewis rats [7] (setting [11]), 28.0 ± 6.4 %.

On to `Cc1nn(C)c2ncc(C(=O)NC(=O)Nc3ccc(C(=O)N4CCOCC4)c(Cl)c3)cc12` [Compound 141], for which the “Percent Swelling day 18” value with female Lewis rats [8] (10 mg/kg i.p. once a day for 18 days) stood at 12.3 ± 1.5 %.

`CN(Cc1cnc2nc(N)nc(N)c2n1)c1ccc(C(=O)N[C@@H](CCC(=O)O)C(=O)O)cc1` [methotrexate, reference compound]: in the data set on female Lewis rats [8] (1 mg/kg p.o. 3 times a week until day 18), the “Percent Swelling day 18” value is listed as 8.9 ± 1.2 %. In the data set on female Lewis rats [7] (setting [12]), the “Percent Swelling day 14” value is recorded as −0.4 ± 1.1 % and the “Percent Swelling day 21” value is recorded as −0.7 ± 1.0 %.
